Source: ChEMBL document CHEMBL4177593, “Recently reported biological activities of pyrazole compounds” (Bioorg Med Chem, 2017)
Values after ≈ are worked out from the molar mass of the structure shown.

Columns and labels:
Candida albicans = test: Antifungal activity against Candida albicans after 48 hrs; format: functional
Yarrowia lipolytica = test: Antifungal activity against Candida lipolytica after 48 hrs; format: functional
Rattus norvegicus [1] = test: Anti inflammatory activity in rat assessed as inhibition of carrageenan-induced hind paw edema at 50 mg/kg measured after 1 to 4 hrs by plethysmographic method relative to control; format: functional
[2] = tested on: Mycobacterium tuberculosis; test: Antitubercular activity against Mycobacterium tuberculosis H37Rv at 100 ug/ml by broth microdilution method relative to control; format: functional
Leishmania amazonensis [3] = test: Antileishmanial activity against Leishmania amazonensis MHOM/BR/77/LTB0016 promastigotes after 24 hrs; format: functional, organism-based; details: MHOM/BR/77/LTB0016, 24 h
Leishmania infantum = test: Antileishmanial activity against Leishmania infantum MCAN/BR/97/P142 promastigotes after 24 hrs; format: functional, organism-based; details: MCAN/BR/97/P142, 24 h
Escherichia coli [4] = test: Antibacterial activity against Escherichia coli MTCC 443; format: functional
Pseudomonas aeruginosa = test: Antibacterial activity against Pseudomonas aeruginosa MTCC 1688; format: functional
MCF7 [5] = test: Antiproliferative activity against human MCF7 cells after 48 hrs by MTT assay; format: functional, cell-based; details: MCF7, 48 h
B16-F10 = test: Antiproliferative activity against mouse B16F10 cells after 48 hrs by MTT assay; format: functional, cell-based; details: B16-F10, 48 h
Rattus norvegicus [6] = test: Anti inflammatory activity in Wistar rat assessed as carrageenan-induced paw edema at 10 mg/kg, po pretreated for 15 mins followed by carrageenan addition measured after 90 mins (reference value: 38.7%); format: functional
[7] = Selectivity index, ratio of IC50 for rat seminal vesicles COX1 to IC50 for recombinant human COX2
Bacillus subtilis = test: Antibacterial activity against Bacillus subtilis MTCC 441 by broth microdilution method; format: functional, organism-based
MCF7 [8] = test: Antiproliferative activity against human MCF7 cells; format: functional, cell-based
MCF7 [9] = test: Antiproliferative activity against human MCF7 cells after 48 hrs by SRB assay; format: functional, cell-based; details: MCF7, 48 h
A549 = test: Antiproliferative activity against human A549 cells after 48 hrs by SRB assay; format: functional, cell-based; details: A549, 48 h
HeLa = test: Antiproliferative activity against human HeLa cells after 48 hrs by SRB assay; format: functional, cell-based
IMR-32 = test: Antiproliferative activity against human IMR32 cells after 48 hrs by SRB assay; format: functional, cell-based; details: IMR-32, 48 h
Escherichia coli [10] = test: Antibacterial activity against Escherichia coli MTCC 443 by broth microdilution method; format: functional
Staphylococcus aureus [11] = test: Antibacterial activity against Staphylococcus aureus; format: functional
Staphylococcus aureus [12] = test: Antibacterial activity against Staphylococcus aureus MTCC 96; format: functional
Streptococcus pyogenes = test: Antibacterial activity against Streptococcus pyogenes MTCC 442; format: functional
Rattus norvegicus [13] = test: Anti inflammatory activity in Wistar rat assessed as inhibition of carrageenan-induced paw edema at 5 mg/kg, po pretreated for 30 mins followed by carrageenan addition measured up to 4 hrs relative to control; format: functional
Rattus norvegicus [14] = test: Ulcerogenic activity in albino rat assessed as ulcer index at 20 mg/kg, po administered daily for 3 successive days in two equal doses at 0 and 12 hrs measured at 6 hrs post last dose by magnifying lens based assay; format: toxicity, organism-based; details: in vivo
Ovis aries = organism: Ovis aries; test: Selectivity index, ratio of IC50 for ovine COX1 to IC50 for ovine COX2
SMMC-7721 = test: Antiproliferative activity against human SMMC7721 cells after 48 hrs by MTT assay; format: functional, cell-based; details: SMMC-7721, 48 h
SGC-7901 = test: Antiproliferative activity against human SGC7901 cells after 48 hrs by MTT assay; format: functional, cell-based; details: SGC-7901, 48 h
Leishmania amazonensis [15] = test: Antileishmanial activity against Leishmania amazonensis amastigotes assessed as reduction in […] lode in early log phase after 24 hrs; format: functional, organism-based
Leishmania amazonensis [16] = test: Antileishmanial activity against Leishmania amazonensis amastigotes assessed as reduction in […] lode in late log phase after 24 hrs; format: functional, organism-based
Leishmania amazonensis [17] = test: Antileishmanial activity against Leishmania amazonensis axenic amastigotes after 24 hrs; format: functional, organism-based
Fusarium oxysporum = test: Antifungal activity against Fusarium oxysporum f. sp. albedinis; format: functional, organism-based
Leishmania amazonensis [18] = test: Antileishmanial activity against Leishmania amazonensis amastigotes after 24 hrs by MTT assay; format: functional, organism-based
K562 = test: Growth inhibition in human K562 cells at 10^-5 mol/L relative to control; format: functional; details: read-out: GI

## COc1ccccc1C1CC(c2ccccc2)=NN1C(=N)N (stereo not drawn)
Candida albicans
  MIC: 15.6 to 62.5 µg/mL (≈ 53 to 212 µM)
Yarrowia lipolytica
  MIC: 15.6 to 62.5 µg/mL (≈ 53 to 212 µM)

## CC(=O)NC1=NN(C(C)=O)C(c2cn(-c3ccccc3)nc2-c2ccc([N+](=O)[O-])cc2)S1 (stereo not drawn)
Rattus norvegicus [1]
  inhibition in vivo at 50 mg/kg: > 84.2%

## CO[C@H]1/C=C/O[C@@]2(C)Oc3c(C)c(O)c4c(O)c(c(/C=N/N5CCN(C)CC5)c(O)c4c3C2=O)NC(=O)/C(C)=C\C=C\[C@H](C)[C@H](O)[C@@H](C)[C@@H](O)[C@@H](C)[C@H](OC(C)=O)[C@@H]1C [RIFAMPIN]
[2]
  inhibition at 100 µg/mL: 98%

## N=C(N)c1ccc(OCCCCCOc2ccc(C(=N)N)cc2)cc1 [PENTAMIDINE]
Leishmania amazonensis [3]
  IC50: 21000 nM
Leishmania infantum
  IC50: 62000 nM

## O=c1[nH]/c(=C\c2nc3cc(Cl)ccc3s2)s/c1=C\c1cn(-c2ccccc2)nc1-c1ccc(Cl)cc1
Escherichia coli [4]
  Activity: 100 µg/mL
Pseudomonas aeruginosa
  Activity: 200 µg/mL

## C#Cc1cccc(Nc2ncnc3cc(OCCOC)c(OCCOC)cc23)c1 [ERLOTINIB]
MCF7 [5]
  IC50: 80 nM
B16-F10
  IC50: 120 nM

## Cc1ccc(/N=C/c2ccc(OCCOc3cc(C)nn3-c3ccccc3)cc2)cc1
Rattus norvegicus [6]
  Activity: 19.4%
[7]
  Ratio IC50: 0.44

## CCn1cc(C(=O)O)c(=O)c2cc(F)c(N3CCNCC3)cc21 [NORFLOXACIN]
Bacillus subtilis
  IC50: 100 µg/mL (≈ 313 µM)
  MIC: 100 µg/mL (≈ 313 µM)

## Cc1cc(OCCOc2ccc(/C=N/c3ccccc3)cc2)n(-c2ccccc2)n1
Rattus norvegicus [6]
  Activity: 13.4%
[7]
  Ratio IC50: 0.51

## CCCCCCCCCCn1nc(-c2cc(Br)ccc2Cl)c(C(N)=O)c1N
MCF7 [8]
  IC50: 2500 nM

## COC(=O)Nc1nc2cc(C(=O)c3cccs3)ccc2[nH]1 [NOCODAZOLE]
MCF7 [9]
  IC50: 1250 nM
A549
  IC50: 900 nM
HeLa
  IC50: 1200 nM
IMR-32
  IC50: 1300 nM

## COc1ccc(/C=C/C(=O)OCc2cn(-c3ccccc3)nc2-c2ccc(OC)cc2)cc1
MCF7 [5]
  IC50: 300 nM

## CN[C@@H]1[C@H](O[C@H]2[C@H](O[C@H]3[C@H](O)[C@@H](O)[C@H](N=C(N)N)[C@@H](O)[C@@H]3N=C(N)N)O[C@@H](C)[C@]2(O)C=O)O[C@@H](CO)[C@H](O)[C@H]1O [STREPTOMYCIN]
Escherichia coli [10]
  Activity: 500 µg/mL
Staphylococcus aureus [11]
  Activity: 500 µg/mL

## CC1(C)S[C@@H]2[C@H](NC(=O)[C@H](N)c3ccccc3)C(=O)N2[C@H]1C(=O)O [AMPICILLIN]
Bacillus subtilis
  IC50: 250 µg/mL (≈ 715 µM)
  MIC: 250 µg/mL (≈ 715 µM)
Escherichia coli [4]
  Activity: 100 µg/mL
Staphylococcus aureus [12]
  Activity: 200 µg/mL
Streptococcus pyogenes
  Activity: 200 µg/mL

## Cc1nn(-c2ccc(S(=O)(=O)Nc3ccccc3)cc2)c(Cl)c1Br
Leishmania amazonensis [3]
  IC50: 70000 nM
Leishmania infantum
  IC50: 59000 nM

## COc1ccc(-c2cc(-c3ccccc3)nn2CC(=O)Nc2ccc(S(N)(=O)=O)cc2)cc1
Rattus norvegicus [13]
  inhibition in vivo at 5 mg/kg: 81%
Rattus norvegicus [14]
  UI: 2.79
Ovis aries
  Ratio IC50: 11.1

## COc1cc(/C=C/c2nnc(-c3cc(-c4ccc(Cl)cc4)n[nH]3)o2)cc(OC)c1OC
MCF7 [9]
  IC50: 1800 nM
A549
  IC50: 1500 nM
HeLa
  IC50: 2300 nM
IMR-32
  IC50: 3200 nM

## O=c1[nH]cc(F)c(=O)[nH]1 [FLUOROURACIL]
SMMC-7721
  IC50: 19.2 µg/mL (≈ 148 µM)
SGC-7901
  IC50: 16 µg/mL (≈ 123 µM)

## CC(=O)N1CCN(c2ccc(OCC3COC(Cn4ccnc4)(c4ccc(Cl)cc4Cl)O3)cc2)CC1 (stereo not drawn) [KETOCONAZOLE]
Leishmania amazonensis [15]
  IC50: 12500 nM
Leishmania amazonensis [16]
  IC50: 29800 nM
Leishmania amazonensis [17]
  IC50: 164000 nM

## Cc1cccc(NS(=O)(=O)c2ccccc2)c1-c1ccn(S(=O)(=O)c2ccccc2)n1
Leishmania amazonensis [15]
  IC50: 6700 nM
Leishmania amazonensis [16]
  IC50: 41300 nM
Leishmania amazonensis [17]
  IC50: 56000 nM

## C/C(O)=C/C(=O)c1cc(C)n(C)n1
Fusarium oxysporum
  IC50: 55 nM
  MIC: 0.055 µM (≈ 9.91 ng/mL)

## COc1ccc2c(c1)c(CC(=O)O)c(C)n2C(=O)c1ccc(Cl)cc1 [INDOMETHACIN]
Rattus norvegicus [14]
  UI: 12.82

## COc1ccc(-n2ncc(-c3nnn[nH]3)c2N)cc1
Leishmania amazonensis [18]
  IC50: 22300 nM

## Cc1n[nH]c(O)c1C(NNC(N)=O)c1ccc(O)cc1 (stereo not drawn)
Escherichia coli [10]; Escherichia coli, MTCC 443
  MIC: 0.25 µg/mL (≈ 0.902 µM)

## Clc1ccc(-c2cc(-c3nnc(/C=C/c4ccc5c(c4)OCO5)o3)[nH]n2)cc1Cl
MCF7 [9]
  IC50: 3900 nM
A549
  IC50: 2300 nM
HeLa
  IC50: 2800 nM
IMR-32
  IC50: 4100 nM

## Cc1cc(C)n(C(=O)c2cc(-c3ccc(F)cc3F)ccc2O)n1
K562
  inhibition of growth at 10 µM: 70%

## O=c1[nH]/c(=C\c2nc3cc(Cl)ccc3s2)s/c1=C\c1cn(-c2ccccc2)nc1-c1ccc(Br)cc1
Pseudomonas aeruginosa
  Activity: 200 µg/mL
Staphylococcus aureus [12]
  Activity: 100 µg/mL
Streptococcus pyogenes
  Activity: 100 µg/mL

## O=C(O)Cc1ccccc1Nc1c(Cl)cccc1Cl [DICLOFENAC]
Rattus norvegicus [1]
  inhibition in vivo at 50 mg/kg: 86.7%

## CS(=O)(=O)Nc1ccc([N+](=O)[O-])cc1Oc1ccccc1 [NIMESULIDE]
Rattus norvegicus [6]
  Activity: 23.4%

## CC(=O)NC1=NN(C(C)=O)C(c2cn(-c3ccccc3)nc2-c2ccc(O)cc2)S1 (stereo not drawn)
Rattus norvegicus [1]
  inhibition in vivo at 50 mg/kg: > 84.2%

## Cc1ccc(-c2cc(C(F)(F)F)nn2-c2ccc(S(N)(=O)=O)cc2)cc1
[7]
  Ratio IC50: 0.0028
